Experimental findings from patent US20250206758A1, “SUBSTITUTED BRIDGED RING INHIBITOR, PREPARATION METHOD THEREFOR AND APPLICATION THEREOF” (SUZHOU ZELGEN BIOPHARMACEUTICALS CO., LTD., priority 2022, published 2025) are described below.

For one series, the system named is AGS. The series can be described thus: Cell proliferation inhibition, AGS (CellTiter-Glo 3D, 7 days). Format: cell-based. As to conditions: Homo sapiens, 168 h. Here is the method: • (a) Resuscitating cells in T75 cell culture flask: • (b) When the cell confluence reaches 80-90%, subculturing the cells.
The diluted test compound was added to a 384-well cell culture plate with a nanoliter pipetting system, and duplicate wells were set up. An equal volume of culture medium was added to the positive control group; and an equal volume of DMSO was added to the negative control group, then centrifugation was conducted at 1000 rpm for 1 min at room temperature.
Cells were inoculated into a) 384-well culture plate, with an equal volume of cells added to the negative control group, and only an equal volume of culture medium added to the positive control group. The plate was centrifuged at 1000 rpm for 1 min at room temperature, and the final DMSO concentration of the compound was 0.5% at last. The plate was placed in a 37° C., 5% CO2 constant temperature incubator for 7 days.
20 μL/well of CellTiter-Glo® 3D to b) was added to 384-well cell culture plate, and the plate was shook at 320 rpm for 20 min in the dark, and incubated at room temperature in the dark for 2 hrs.
The luminescence value was read using an Envision multi-functional microplate reader.
The inhibition rate (IR) of the test compound was calculated using the following formula: IR (%)=(1−(RLU compound−RLU blank control)/(RLU meidum control−RLU blank control))*100%. The inhibition rates of different concentrations of compounds were calculated in Excel, and then the inhibition curves were plotted and the related parameters (including the minimum inhibition rate, maximum inhibition rate and IC50) were calculated using GraphPad Prism software.
A general note: In ATP-based viability assays light output follows the ATP content of the culture.

Another series concerns GP2D. The series can be described thus: Cell proliferation inhibition, GP2D (CellTiter-Glo 3D, 7 days). Format: cell-based. As to conditions: 168 h. A digest of the protocol:
(§1)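 Cells exposed to compound (final DMSO 0.5%) in duplicate for 7 days at 37 °C, 5% CO2, then CellTiter-Glo 3D added with 20 min shaking and 2 h dark incubation before luminescence. Inhibition normalized to medium and blank controls; IC50, minimum and maximum inhibition from curve fits.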

The next series deals with AsPC-1. Briefly: Cell proliferation inhibition, AsPC-1 (CellTiter-Glo 3D, 7 days). Format: cell-based. As to conditions: Homo sapiens, ASPC1, 168 h; AsPC-1, 7 days. In short, it runs like this: as §1
The nature of a further series: in vivo. As to conditions: male, ICR, mouse, po, 30 mg/kg.

Each structure is given as a SMILES string.

Method for in vivo: Male ICR mice, weighing 22-24 g, were fasted overnight and orally administered with 30 mg/kg of a solution of the compound of the present invention or the control compound [10% DMSO+60% PEG400+30% aqueous solution]. Blood was collected at 0.25, 0.5, 1.0, 2.0, 4.0, 6.0, 8.0, 12.0 and 24 h after administration of the compound of the present invention respectively, and the concentration of the compound of the present invention or the control compound in plasma was determined by LC/MS/MS.

Broadly, the IC50 is the concentration that gives 50% inhibition. A low value points to higher potency. As for `C#Cc1c(F)ccc2cc(O)cc(-c3ncc4c(N5C[C@H]6CC[C@@H](C5)N6)nc(OC[C@@]56CCCN5C[C@@]5(CC5(F)F)C6)nc4c3F)c12` [Example 16B-1, 4-(4-((1R,5S)-3,8-diazabicyclo[3.2.1]octan-3-yl)-2-(((1S,7a'S)-2,2-difluorodihydro-1′H,3′H-spiro[cyclopropan-1,2′-pyrrolizin]-7a′(5′H)-yl)methoxy)-8-fluoropyridino[4,3-d]pyrimidin-7-yl)-5-ethynyl-6-fluoronaphthalen-2-ol], the IC50 with AGS was 1.37 nM; in the series with GP2D, 0.2 nM; in the series on AsPC-1, 1.24 nM.

What is called AUC(0-inf) is the area under the concentration-time curve extrapolated to infinity. Low readings indicate low exposure, high ones high exposure. As a reminder, the AUC(0-t) is exposure summed from dosing to a finite time, without extrapolation to infinity. One may read the Cmax as the peak of the concentration-time curve. As a reminder, the Tmax is the time at which the peak concentration occurs. One may read the half-life as the time in which the quantity being followed falls by half. Read a low half-life as fast loss. Turning to `N#Cc1c(N)sc2c(F)ccc(-c3ncc4c(N5CC6CCC(C5)N6)nc(OC[C@@]56CCCN5C[C@@]5(CC5(F)F)C6)nc4c3F)c12` [Example 24], in the series on GP2D, the half-inhibitory concentration (IC50) worked out at 2.5 nM. Also, in the series “in vivo”, the AUC(0-inf) came out at 1270 ng·h/mL, the area under the curve AUC(0-t) came to 1250 ng·h/mL, the highest concentration (Cmax) worked out at 461 ng/mL and the Tmax was 0.5 h. Further, the half-life in the series “in vivo” was 4.74 h. The same molecule came in with a half-inhibitory concentration (IC50) in the series with AsPC-1 of 62 nM.

For `Cc1cc(N)c(F)c(-c2ncc3c(N4C[C@H]5CC[C@@H](C4)N5)nc(OC[C@@]45CCCN4C[C@@]4(CC4(F)F)C5)nc3c2F)c1C(F)(F)F` [Example 26, 3-(4-((1R,5S)-3,8-diazabicyclo[3.2.1]octan-3-yl)-2-(((1S,7a'S)-2,2-difluorodihydro-1′H,3′H-spiro[cyclopropan-1,2′-pyrrolizin]-7a′(5′H)-yl)methoxy)-8-fluoropyridino[4,3-d]pyrimidin-7-yl)-2-fluoro-5-methyl-4-(trifluoromethyl)aniline], in the series “in vivo”, the area under the curve AUC(0-inf) was 3770 ng·h/mL, the AUC(0-t) was 3380 ng·h/mL, the concentration peaked (Cmax) at 462 ng/mL and the time of peak concentration (Tmax) is 0.25 h. Also, the half-life in “in vivo” is 6.97 h.

In the case of `Nc1cc(Cl)c(C(F)(F)F)c(-c2ncc3c(N4C[C@H]5CC[C@@H](C4)N5)nc(OC[C@@]45CCCN4C[C@@]4(CC4(F)F)C5)nc3c2F)c1F` [Example 34, 3-(4-((1R,5S)-3,8-diazabicyclo[3.2.1]octan-3-yl)-2-(((1S,7a'S)-2,2-difluorodihydro-1′H,3′H-spiro[cyclopropan-1,2′-pyrrolizin]-7a′(5′H)-yl)methoxy)-8-fluoropyridino[4,3-d]pyrimidin-7-yl)-5-chloro-2-fluoro-4-(trifluoromethyl)aniline], the figures for the IC50 in the series on AGS, in the series on GP2D and in the series on AsPC-1 were 21.5 nM, 1.03 nM and 11.1 nM, respectively.

Take `Nc1cc(Cl)c(C(F)(F)F)c(-c2ncc3c(N4C[C@H]5CC[C@@H](C4)N5)nc(OC[C@@]45CCCN4C[C@@]4(CC4(F)F)C5)nc3c2F)c1Cl` [Example 35, 3-(4-((1R,5S)-3,8-diazabicyclo[3.2.1]octan-3-yl)-2-(((1S,7a′S)-2,2-difluorodihydro-1′H,3′H-spiro[cyclopropan-1,2′-pyrrolizin]-7a′(5′H)-yl)methoxy)-8-fluoropyridino[4,3-d]pyrimidin-7-yl)-2,5-dichloro-4-(trifluoromethyl)aniline]: the results for the half-inhibitory concentration (IC50) with AGS, in the series with GP2D and in the series on AsPC-1 were 79.7 nM, 4.89 nM and 45.7 nM, respectively.

As to `Nc1cc(F)c(C(F)(F)F)c(-c2ncc3c(N4C[C@H]5CC[C@@H](C4)N5)nc(OC[C@@]45CCCN4C[C@@]4(CC4(F)F)C5)nc3c2F)c1Cl` [Example 36, 3-(4-((1R,5S)-3,8-diazabicyclo[3.2.1]octan-3-yl)-2-(((1S,7a'S)-2,2-difluorodihydro-1′H,3′H-spiro[cyclopropan-1,2′-pyrrolizin]-7a′(5′H)-yl)methoxy)-8-fluoropyridino[4,3-d]pyrimidin-7-yl)-2-chloro-5-fluoro-4-(trifluoromethyl)aniline], the values for the half-inhibitory concentration (IC50) in the series with AGS, in the series on GP2D and in the series with AsPC-1 were 298 nM, 20.4 nM and 167 nM, respectively.
